Patent US5519034A, “Tetraisoquinoline compounds which have useful pharmaceutical utility” (The Boots Company PLC, priority 1991, dated 1996)

Key:
[1] = target: T1, D1 dopamine receptors (Rattus norvegicus, UniProt P18901); assay: D1 dopamine receptor binding: inhibition of tritiated SCH 23390 binding, rat striatal samples; parameters: species or system rat (male Charles River CD rats); settings: rat striatum, tritiated SCH 23390, pH 7.4, 37° C., 30 minutes
T1 construct: Striatal samples from the brains of male Charles River CD rats; from tissue; host or cells: striatum of male Charles River CD rats (washed membrane pellet)
T1 sequence (P18901 whole entry): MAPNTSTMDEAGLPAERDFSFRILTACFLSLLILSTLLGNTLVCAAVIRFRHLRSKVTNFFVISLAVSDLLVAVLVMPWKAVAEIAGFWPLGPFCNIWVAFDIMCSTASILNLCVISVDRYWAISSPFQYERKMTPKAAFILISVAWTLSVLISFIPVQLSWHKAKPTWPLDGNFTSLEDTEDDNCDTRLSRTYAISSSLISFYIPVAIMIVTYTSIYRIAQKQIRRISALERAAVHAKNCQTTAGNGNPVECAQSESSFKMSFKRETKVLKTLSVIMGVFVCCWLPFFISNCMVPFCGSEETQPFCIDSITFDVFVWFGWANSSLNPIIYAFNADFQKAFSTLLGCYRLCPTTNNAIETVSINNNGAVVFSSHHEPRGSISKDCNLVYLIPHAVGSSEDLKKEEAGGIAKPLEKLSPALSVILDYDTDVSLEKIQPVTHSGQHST
In short: (§1)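 Rat striatal membranes in Tris-HCl with NaCl, KCl, CaCl2, MgCl2. Filtration, scintillation counting; Ki from displacement IC50 via ligand KD, some D2 Ki estimated from single concentrations.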

[2] = target: T2, D2 dopamine receptors (Rattus norvegicus, UniProt P61169); assay: D2 dopamine receptor binding: inhibition of tritiated (S)-sulpiride binding, rat striatal samples; parameters: species or system rat (male Charles River CD rats)
T2 construct: Striatal samples from the brains of male Charles River CD rats; from tissue; host or cells: striatum of male Charles River CD rats (washed membrane pellet)
T2 sequence (P61169 whole entry): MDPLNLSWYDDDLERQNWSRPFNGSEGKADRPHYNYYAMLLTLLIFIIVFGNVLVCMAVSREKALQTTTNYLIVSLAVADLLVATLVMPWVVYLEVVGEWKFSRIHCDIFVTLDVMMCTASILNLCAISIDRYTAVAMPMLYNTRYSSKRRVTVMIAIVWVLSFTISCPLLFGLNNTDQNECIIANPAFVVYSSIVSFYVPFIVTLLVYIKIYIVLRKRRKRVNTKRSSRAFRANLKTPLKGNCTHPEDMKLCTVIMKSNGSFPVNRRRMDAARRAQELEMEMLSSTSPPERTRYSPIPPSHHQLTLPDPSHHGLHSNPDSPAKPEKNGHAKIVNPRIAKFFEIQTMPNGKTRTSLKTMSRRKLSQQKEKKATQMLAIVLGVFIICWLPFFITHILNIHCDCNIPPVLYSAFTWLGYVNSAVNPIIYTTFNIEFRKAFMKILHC
In short: as §1

Compound: COc1cc2c(cc1O)C(C1(c3ccccc3Cl)CCCC1)N(C)CC2 (stereo not drawn) [Example 84, 1-[1-(2-chlorophenyl)cyclopentyl]-7-hydroxy-6-methoxy-2-methyl-1,2,3,4-tetrahydroisoquinoline]
- Ki [1]: 12 nM
- Ki ([2]; rat striatum, tritiated (S)-sulpiride, pH 7.7, 4° C., 40 minutes, > = from highest concentration which displaced ≤50% of the ligand, read-out: Ki for D2 binding): 5.1 µM
- Ki for D2 / Ki for D1 ([2]; ratio to two significant figures): 430
